The values that follow are results of earlier work, collected in patent US20150119345A1, “BILE ACID RECYCLING INHIBITORS FOR TREATMENT OF GASTROINTESTINAL INFECTIONS” (priority 2013, published 2015).

One series has as its system mice. Particulars: 0.1 mg/kg rat or human GLP-2 to mice for 7-10 days.

Regarding “GLP-2: 33 amino acid peptide, co-secreted along with GLP-1 from intestinal endocrine cells in the small and large intestine”, the t½ in vivo entry is reported as “short”. Moreover, the “small bowel weight and villus height” value in the series on mice was “increase in small bowel weight and villus height”.
